US12371454B2, “Cyclic peptide compound having Kras inhibitory action” (priority 2019, dated 2025)
Starred links: 1 amine or outer side, 2 acyl side, 3 side chain; linkers in the order of their positions; H or OH if unused. Positions of bridges follow the written chain, without caps; N, C: chain ends. Non-standard residues stand in square brackets, D forms with d. Residues, ends and D or L forms follow the SMILES beside them. *: point of attachment. hPhe(3-Cl-4-CF3) = N[C@@H](CCc1ccc(C(F)(F)F)c(Cl)c1)C(=O)O; NMePhe(4-CF3) = CN[C@@H](Cc1ccc(C(F)(F)F)cc1)C(=O)O; hPhe(4-CF3) = N[C@@H](CCc1ccc(C(F)(F)F)cc1)C(=O)O; NMePhe(3-CN) = CN[C@@H](Cc1cccc(C#N)c1)C(=O)O; NMePhe(4-Cl) = CN[C@@H](Cc1ccc(Cl)cc1)C(=O)O; NMePhe(2-OMe) = CN[C@@H](Cc1ccccc1OC)C(=O)O; NMePhe(4-Me) = CN[C@@H](Cc1ccc(C)cc1)C(=O)O; X42 = Cc1ccc(I)cc1C[C@H](N[*:1])C(=O)[*:2]; Phe(3-I) = N[C@@H](Cc1cccc(I)c1)C(=O)O; Ala(cPent) = N[C@@H](CC1CCCC1)C(=O)O; NMeY = CN[C@@H](Cc1ccc(O)cc1)C(=O)O; NMeCha = CN[C@@H](CC1CCCCC1)C(=O)O; Ala(cPr) = N[C@@H](CC1CC1)C(=O)O; NMeChg = CN[C@H](C(=O)O)C1CCCCC1; NMeF = CN[C@@H](Cc1ccccc1)C(=O)O; NMeI = CC[C@H](C)[C@H](NC)C(=O)O; d(β3hL) = CC(C)C[C@@H](N)CC(=O)O; dNMeF = CN[C@H](Cc1ccccc1)C(=O)O; NMeD = CN[C@@H](CC(=O)O)C(=O)O; CH2CONHtBu = CC(C)(C)NC(=O)C*; NMeL = CN[C@@H](CC(C)C)C(=O)O; NPrAla = CCCN[C@@H](C)C(=O)O; NMeV = CN[C@H](C(=O)O)C(C)C; d(β3hA) = C[C@@H](N)CC(=O)O; NMeAbu = CC[C@H](NC)C(=O)O; NMeS = CN[C@@H](CO)C(=O)O; NMeA = CN[C@@H](C)C(=O)O; NMeAib = CNC(C)(C)C(=O)O; Nle = CCCC[C@H](N)C(=O)O; Piperidide = C1CCN(*)CC1; Pra = C#CC[C@H](N)C(=O)O; Pyrrolidide = C1CCN(*)C1; Ac5c = NC1(C(=O)O)CCCC1; Aze = O=C(O)[C@@H]1CCN1; CH2CMe2OH = CC(C)(O)C*; Aib = CC(C)(N)C(=O)O; Isopentyl = CC(C)CC*; X47 = Fc1cncc(C*)c1; Sar = CNCC(=O)O; Propyl = CCC*

Molecular target: T1, Kras and SOS1 (biotin-tagged human Kras loaded with GDP, His-tagged human SOS1) (Homo sapiens, UniProt P01116, G12D)
T1 construct: made in house; host or cells: E. coli (stated for Kras only)
T1 sequence (P01116 1-188 isoform P01116-2 G12D): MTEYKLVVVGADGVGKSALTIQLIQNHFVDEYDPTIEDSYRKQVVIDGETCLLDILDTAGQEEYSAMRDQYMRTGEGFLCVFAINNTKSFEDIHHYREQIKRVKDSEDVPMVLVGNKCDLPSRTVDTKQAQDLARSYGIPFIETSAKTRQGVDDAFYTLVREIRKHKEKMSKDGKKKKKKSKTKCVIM
Assay: Protein-protein interaction inhibition between Kras and SOS1 (KrasGl2D-SOS PPI) using AlphaScreen
Assay type: binding
Conditions: AlphaScreen; biotin-tagged human Kras loaded with GDP, His-tagged human SOS1; read-out: KRAS G12D-SOS PPI IC50
In short: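 Donor beads (nickel) hold His-SOS1; acceptor beads (streptavidin) hold biotin-Kras bound to GDP. Signal measured at 520-620 nm following 680 nm excitation.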

SMILES | IC50 [nM]
C#CC[C@@H]1NC(=O)[C@H](Cc2cccc(I)c2)NC(=O)CN(C)C(=O)[C@H](Cc2ccccc2)N(C)C(=O)[C@@H]2CCN2C(=O)[C@H](C)N(C)C(=O)[C@H]([C@@H](C)CC)NC(=O)[C@H](CC(C)C)N(C)C(=O)C[C@@H](C(=O)N2CCCCC2)N(C)C(=O)[C@H](CC(C)C)NC(=O)C(C)(C)N(C)C1=O [Compound 1313] ([NMeL]I[NMeA][Aze][NMeF][Sar][Phe(3-I)][Pra][NMeAib]L[NMeD]-Piperidide; lactam N-11) | 65
CC[C@H](C)[C@@H]1NC(=O)[C@H](CC(C)C)N(C)C(=O)C[C@@H](C(=O)N2CCCCC2)N(C)C(=O)[C@H](C(C)C)N(C)C(=O)C2(CCCC2)NC(=O)[C@@H](Cc2ccccc2)N(C)C(=O)[C@H](CCc2ccc(C(F)(F)F)c(Cl)c2)NC(=O)CN(C)C(=O)[C@H](CC2CCCCC2)N(C)C(=O)[C@@H]2CCN2C(=O)[C@H](C)N(C)C1=O [Compound 1442] ([NMeL]I[NMeA][Aze][NMeCha][Sar][hPhe(3-Cl-4-CF3)][dNMeF][Ac5c][NMeV][NMeD]-Piperidide; lactam N-11) | 280
CC[C@H](C)[C@@H]1NC(=O)[C@H](CC(C)C)N(C)C(=O)C[C@@H](CC(C)C)NC(=O)[C@H](C(C)C)N(C)C(=O)C2(CCCC2)NC(=O)[C@@H]2CCCN2C(=O)[C@H](CCc2ccc(C(F)(F)F)c(Cl)c2)NC(=O)CN(C)C(=O)[C@H](CC2CCCCC2)N(C)C(=O)CN(C)C(=O)CN(C)C1=O [Compound 1032] (cyclo([Ac5c][NMeV][d(β3hL)][NMeL]I[Sar][Sar][NMeCha][Sar][hPhe(3-Cl-4-CF3)]P)) | 60
CC[C@H](C)[C@@H]1NC(=O)[C@H](CC(C)C)N(C)C(=O)C[C@@H](C(=O)N2CCCCC2)N(C)C(=O)[C@H](CC(C)C)N(C)C(=O)C(C)(C)NC(=O)[C@H](COCC(=O)NC(C)(C)C)N(C)C(=O)[C@H](CCc2ccc(C(F)(F)F)c(Cl)c2)NC(=O)CN(C)C(=O)[C@H](COCCC(C)C)N(C)C(=O)CN(C)C(=O)CN(C)C1=O [Compound 1480] ([NMeL]I[Sar][Sar][NMeS](Isopentyl)[Sar][hPhe(3-Cl-4-CF3)][NMeS](CH2CONHtBu)[Aib][NMeL][NMeD]-Piperidide; lactam N-11) | 8.9
CCCC[C@@H]1NC(=O)[C@H](Cc2cc(I)ccc2C)NC(=O)CN(C)C(=O)[C@H](Cc2ccc(OC)cc2)N(C)C(=O)[C@@H]2CCN2C(=O)[C@H](C)N(C)C(=O)[C@H]([C@@H](C)CC)NC(=O)[C@H](CC)N(C)C(=O)C[C@@H](C(=O)N2CCCCC2)N(C)C(=O)[C@H](CC(C)C)NC(=O)C(C)(C)N(C)C1=O [Compound 1358] ([NMeAbu]I[NMeA][Aze][NMeY](Me)[Sar][X42][Nle][NMeAib]L[NMeD]-Piperidide; lactam N-11) | 19
CC[C@H](C)[C@@H]1NC(=O)[C@H](CC(C)C)N(C)C(=O)C[C@@H](C(=O)N2CCCCC2)N(C)C(=O)[C@H](C2CCCCC2)N(C)C(=O)C2(CCCC2)NC(=O)[C@H](COCc2cncc(F)c2)N(C)C(=O)[C@H](CCc2ccc(C(F)(F)F)c(Cl)c2)NC(=O)CN(C)C(=O)[C@H](CC2CCCCC2)N(C)C(=O)CN(C)C(=O)CN(C)C1=O [Compound 950] ([NMeL]I[Sar][Sar][NMeCha][Sar][hPhe(3-Cl-4-CF3)][NMeS](X47)[Ac5c][NMeChg][NMeD]-Piperidide; lactam N-11) | 9
CCCC[C@@H]1NC(=O)[C@H](Cc2cccc(I)c2)NC(=O)CN(C)C(=O)[C@H](Cc2ccc(Cl)cc2)N(C)C(=O)CN(C)C(=O)CN(C)C(=O)[C@H]([C@@H](C)CC)NC(=O)[C@H](CC(C)C)N(C)C(=O)C[C@@H](C(=O)N2CCCCC2)N(C)C(=O)[C@H](CC(C)C)NC(=O)[C@H](Cc2ccccc2OC)N(C)C1=O [Compound 259] ([NMeL]I[Sar][Sar][NMePhe(4-Cl)][Sar][Phe(3-I)][Nle][NMePhe(2-OMe)]L[NMeD]-Piperidide; lactam N-11) | 21
CC[C@H](C)[C@@H]1NC(=O)[C@H](CC(C)C)N(C)C(=O)C[C@@H](C(=O)N2CCCCC2)NC(=O)[C@H](C2CCCCC2)N(C)C(=O)C2(CCCC2)NC(=O)[C@@H]2CCCN2C(=O)[C@H](CCc2ccc(C(F)(F)F)c(Cl)c2)NC(=O)CN(C)C(=O)[C@H](CC2CCCCC2)N(C)C(=O)CN(C)C(=O)CN(C)C1=O [Compound 1274] ([NMeL]I[Sar][Sar][NMeCha][Sar][hPhe(3-Cl-4-CF3)]P[Ac5c][NMeChg]D-Piperidide; lactam N-11) | 3.8
CC(C)C[C@H]1C(=O)N[C@@H](CC2CC2)C(=O)N(C)CC(=O)N(C)CC(=O)N(C)[C@@H](CC2CCCCC2)C(=O)N(C)CC(=O)N[C@@H](CCc2ccc(C(F)(F)F)c(Cl)c2)C(=O)N2CCC[C@H]2C(=O)NC2(CCCC2)C(=O)N(C)[C@@H](C(C)C)C(=O)N[C@H](C)CC(=O)N1C [Compound 550] (cyclo([Ac5c][NMeV][d(β3hA)][NMeL][Ala(cPr)][Sar][Sar][NMeCha][Sar][hPhe(3-Cl-4-CF3)]P)) | 110
CC[C@H](C)[C@@H]1NC(=O)[C@H](C)N(C)C(=O)C[C@@H](C(=O)N2CCCC2)NC(=O)[C@H](CC(C)C)N(C)C(=O)[C@H](Cc2ccccc2)N(C)C(=O)[C@H](COCC(C)(C)O)NC(=O)[C@H](CCc2ccc(C(F)(F)F)cc2)NC(=O)CN(C)C(=O)[C@H](Cc2ccc(Cl)cc2)N(C)C(=O)CN(C)C(=O)CN(C)C1=O [Compound 502] ([NMeA]I[Sar][Sar][NMePhe(4-Cl)][Sar][hPhe(4-CF3)]S(CH2CMe2OH)[NMeF][NMeL]D-Pyrrolidide; lactam N-11) | 47
CC[C@H](C)[C@@H]1NC(=O)[C@H](CC(C)C)N(C)C(=O)C[C@@H](C(=O)N(C)C)N(C)C(=O)[C@H]([C@@H](C)CC)N(C)C(=O)C2(CCCC2)NC(=O)[C@H](Cc2cccc(C#N)c2)N(C)C(=O)[C@H](CCc2ccc(C(F)(F)F)c(Cl)c2)NC(=O)CN(C)C(=O)[C@H](Cc2ccc(C)cc2)N(C)C(=O)[C@@H]2CCN2C(=O)[C@H](C)N(C)C1=O [Compound 2002] ([NMeL]I[NMeA][Aze][NMePhe(4-Me)][Sar][hPhe(3-Cl-4-CF3)][NMePhe(3-CN)][Ac5c][NMeI][NMeD]-NMe2; lactam N-11) | 3
CCCOC[C@H]1C(=O)N(C)[C@H](C(=O)N2CCCCC2)CC(=O)N(C)[C@@H](CC(C)C)C(=O)N[C@@H]([C@@H](C)CC)C(=O)N(C)[C@@H](C)C(=O)N2CC[C@H]2C(=O)N(C)[C@@H](CC2CCCCC2)C(=O)N(C)CC(=O)N[C@@H](CCc2ccc(C(F)(F)F)c(Cl)c2)C(=O)N2CCC[C@H]2C(=O)NC2(CCCC2)C(=O)N1C [Compound 1855] ([NMeL]I[NMeA][Aze][NMeCha][Sar][hPhe(3-Cl-4-CF3)]P[Ac5c][NMeS](Propyl)[NMeD]-Piperidide; lactam N-11) | 340
CCCC[C@@H]1NC(=O)[C@H](Cc2cccc(I)c2)NC(=O)CN(C)C(=O)[C@H](Cc2ccc(Cl)cc2)N(C)C(=O)CN(C)C(=O)CN(C)C(=O)[C@H]([C@@H](C)CC)NC(=O)[C@H](CC(C)C)N(C)C(=O)C[C@@H](C(=O)N2CCCCC2)N(C)C(=O)[C@H](CC(C)C)NC(=O)[C@H](Cc2ccc(C(F)(F)F)cc2)N(C)C1=O [Compound 498] ([NMeL]I[Sar][Sar][NMePhe(4-Cl)][Sar][Phe(3-I)][Nle][NMePhe(4-CF3)]L[NMeD]-Piperidide; lactam N-11) | 49
CC(C)C[C@H]1C(=O)N[C@@H](CO)C(=O)N(C)CC(=O)N(C)CC(=O)N(C)[C@@H](CC2CCCCC2)C(=O)N(C)CC(=O)N[C@@H](CCc2ccc(C(F)(F)F)c(Cl)c2)C(=O)N2CCC[C@H]2C(=O)NC2(CCCC2)C(=O)N(C)[C@@H](C2CCCCC2)C(=O)N(C)[C@H](C(=O)N2CCCCC2)CC(=O)N1C [Compound 1799] ([NMeL]S[Sar][Sar][NMeCha][Sar][hPhe(3-Cl-4-CF3)]P[Ac5c][NMeChg][NMeD]-Piperidide; lactam N-11) | 15
CC(C)C[C@H]1C(=O)N[C@@H](CC2CCCC2)C(=O)N(C)CC(=O)N(C)CC(=O)N(C)[C@@H](CC2CCCCC2)C(=O)N(C)CC(=O)N[C@@H](CCc2ccc(C(F)(F)F)c(Cl)c2)C(=O)N2CCC[C@H]2C(=O)NC2(CCCC2)C(=O)N(C)[C@@H](C(C)C)C(=O)N(C)[C@H](C(=O)N2CCCCC2)CC(=O)N1C [Compound 627] ([NMeL][Ala(cPent)][Sar][Sar][NMeCha][Sar][hPhe(3-Cl-4-CF3)]P[Ac5c][NMeV][NMeD]-Piperidide; lactam N-11) | 13
CC(C)C[C@H]1C(=O)N[C@@H](C(C)C)C(=O)N(C)CC(=O)N(C)CC(=O)N(C)[C@@H](CC2CCCCC2)C(=O)N(C)CC(=O)N[C@@H](CCc2ccc(C(F)(F)F)c(Cl)c2)C(=O)N2CCC[C@H]2C(=O)NC2(CCCC2)C(=O)N(C)[C@@H](CC(C)C)C(=O)N[C@H](C)CC(=O)N1C [Compound 1452] (cyclo([Ac5c][NMeL][d(β3hA)][NMeL]V[Sar][Sar][NMeCha][Sar][hPhe(3-Cl-4-CF3)]P)) | 38
CC[C@H](C)[C@@H]1NC(=O)[C@H](C)N(C)C(=O)C[C@@H](C)NC(=O)[C@H](CC(C)C)N(C)C(=O)[C@H](Cc2ccccc2)N(C)C(=O)[C@@H]2CCCN2C(=O)[C@H](CCc2ccc(C(F)(F)F)cc2)NC(=O)CN(C)C(=O)[C@H](CC2CCCCC2)N(C)C(=O)CN(C)C(=O)CN(C)C1=O [Compound 1031] (cyclo(I[Sar][Sar][NMeCha][Sar][hPhe(4-CF3)]P[NMeF][NMeL][d(β3hA)][NMeA])) | 320
CCCN1C(=O)C[C@@H](C)NC(=O)[C@H](C(C)C)N(C)C(=O)C2(CCCC2)NC(=O)[C@@H]2CCCN2C(=O)[C@H](CCc2ccc(C(F)(F)F)c(Cl)c2)NC(=O)CN(C)C(=O)[C@H](CC2CCCCC2)N(C)C(=O)CN(C)C(=O)CN(C)C(=O)[C@H]([C@@H](C)CC)NC(=O)[C@@H]1C [Compound 114] (cyclo([Ac5c][NMeV][d(β3hA)][NPrAla]I[Sar][Sar][NMeCha][Sar][hPhe(3-Cl-4-CF3)]P)) | 20
